Measured values: ChEMBL document CHEMBL1148830, “Discovery and investigation of antiproliferative and apoptosis-inducing properties of new heterocyclic podophyllotoxin analogues accessible by a one-step multicomponent synthesis” (2007)
The source made the active and inactive calls. No cut-off for these calls is given here.

How the values were obtained:
[1] = system: Jurkat; assay: Induction of apoptosis in Jurkat cells after 24 hrs by flow cytometric Annexin-V/propidium iodide assay; format: functional, cell-based; conditions: Homo sapiens
[2] = Antiproliferative activity against human MCF7/AZ cells assessed as cell viability at 5 uM after 48 hrs by MTT assay relative to control; format: functional; conditions: read-out: Activity
[3] = system: Jurkat; assay: Effect on apoptosis in Jurkat cells assessed as DNA laddering after 24 hrs at 1 uM; format: functional, cell-based; conditions: Homo sapiens
[4] = system: HeLa; assay: Antiproliferative activity against HeLa cells assessed as cell viability at 50 uM after 48 hrs by MTT assay; format: functional; conditions: Homo sapiens, read-out: Activity
[5] = system: HeLa; assay: Antiproliferative activity against HeLa cells assessed as cell viability at 5 uM after 48 hrs by MTT assay relative to control; format: functional; conditions: Homo sapiens, read-out: Activity
[6] = system: Jurkat; assay: Antiproliferative activity against human Jurkat cells assessed as cell viability at 5 uM after 48 hrs by MTT assay; format: functional; conditions: read-out: Activity
[7] = system: Lymphocyte; assay: Induction of apoptosis in human whole blood lymphocytes after 24 hrs by flow cytometric Annexin-V/propidium iodide assay; format: functional, cell-based
[8] = system: Jurkat; assay: Induction of apoptosis in Jurkat cells assessed as cell viability at 50 uM after 48 hrs by flow cytometry Annexin-V/propidium iodide assay; format: functional; conditions: Homo sapiens, read-out: Activity
[9] = system: Jurkat; assay: Antiproliferative activity against human Jurkat cells assessed as cell viability at 50 uM after 48 hrs by MTT assay; format: functional; conditions: read-out: Activity
[10] = system: Jurkat; assay: Induction of apoptosis in Jurkat cells assessed as cell viability at 5 uM after 48 hrs by flow cytometry Annexin-V/propidium iodide assay; format: functional; conditions: Homo sapiens, read-out: Activity
[11] = system: HeLa; assay: Growth inhibition of HeLa cells after 48 hrs by MTT assay; format: functional; conditions: Homo sapiens
[12] = Antiproliferative activity against human MCF7/AZ cells assessed as cell viability at 50 uM after 48 hrs by MTT assay; format: functional; conditions: read-out: Activity

With `COc1cc([C@@H]2c3cc4c(cc3[C@@H](O[C@@H]3O[C@@H]5CO[C@@H](C)O[C@H]5[C@H](O)[C@H]3O)[C@H]3COC(=O)[C@H]23)OCO4)cc(OC)c1O` [ETOPOSIDE] as the compound, how does the Activity [1] read?
Its Activity is “Active”.

And the viability at 5 µM [2]?
The viability at 5 µM was 76%.

What about the Activity [3] of the same compound?
Its Activity is “inactive”.

And the viability at 50 µM [4]?
Its viability at 50 µM is 15%.

What about the viability at 5 µM [5] of the same compound?
Its viability at 5 µM is 91%.

What about the viability at 5 µM [6] of the same compound?
The viability at 5 µM was 75%.

What about the Activity [7] of the same compound?
The Activity was “inactive”.

And the viability at 50 µM [8]?
The viability at 50 µM was 61%.

What about the viability at 50 µM [9] of the same compound?
Its viability at 50 µM is 50%.

What about the viability at 5 µM [10] of the same compound?
Its viability at 5 µM is 4%.

What about the GI50 [11] of the same compound?
Its GI50 is 8 µM.

And the viability at 50 µM [12]?
The viability at 50 µM was 57%.
